Read-outs that look alike come from different tables or passages of the source.
Columns and labels:
CCRF-CEM = experiment: CellTiterGlo cell viability assay, CCRF-CEM; format: cell-based; details: 72 h; for EC50: read-out: Ab EC50
In short: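 72 h CTG viability; 9-pt, 3.16-fold titration, 198 μM top to 19.8 nM final; duplicates; 0.5% DMSO final; standard growth conditions. Read-out: absolute EC50 and % inhibition at highest concentration.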

[1] = test system: KG1a LSCs and bulk tumour cells; experiment: γH2A.X phosphorylation assay (DNA damage) in purified LSCs and bulk tumour cells; format: cell-based; details: 2-hour exposure, hypoxic conditions (5% O2), in words
Experimental: KG1a cells were grown under hypoxic conditions for 7 days in order to generate 10^7 cells and increase the percentage of cells expressing an LSC phenotype. Subsequently, Lin^−/CD34^+/CD38^−/CD123^+ LSCs and Lin^−/CD34^+/CD38^+/CD123^+ ‘bulk’ tumour cells were purified by high speed cell sorting using a FACS Melody cell sorter (Becton Dickenson) and were placed back into hypoxic cell culture conditions prior to the addition of clofarabine or clofarabine diphosphate phosphoramidates.
Phosphorylation of the histone variant γH2A.X occurs as a rapid response to double strand DNA breaks. The γH2A.X Phosphorylation Assay Kit (Flow cytometry) is a cell-based assay formatted for flow cytometric detection of levels of phosphorylated Histone γH2A.X (Merck, UK). LSC and ‘bulk tumour’ cells were cultured in 96-well plates in the presence of clofarabine or clofarabine diphosphate phosphoramidates. After 2 h of exposure to drug, the cells were harvested by centrifugation and then fixed and permeabilised in preparation for staining and detection. Histone γH2A.X phosphorylated at serine 139 is detected by the addition of the anti-phospho-Histone γH2A.X conjugated to APC. Cells were then run on a flow cytometer to quantitate the number of cells staining positive for phosphorylated Histone γH2A.X.

In the case of `Nc1nc(Cl)nc2c1ncn2[C@@H]1O[C@H](CO)[C@@H](O)[C@@H]1F` [Clofarabine, reference compound], the EC50 (CCRF-CEM; Table 4 classes) is reported as less than 200 nM, the EC50 (CCRF-CEM; Homo sapiens, Table 3 classes) is reported as less than 200 nM and the inhibition at 198 µM (CCRF-CEM; Homo sapiens, percentage inhibition at the highest concentration tested, read-out: Top Inh) is reported as 98.7%. The “DNA damage in LSCs compared with bulk tumour cells (γH2A.X phosphorylation)” value [1] was “level of DNA damage in the LSCs was significantly lower than the bulk tumour cells”.

Reference: patent US11560400B2, “Salts of diphosphate phosphoramidate of nucleosides as anticancer compounds” (NuCana plc, priority 2017, dated 2023)
